ChEMBL document CHEMBL1148266, “Synthesis and mitochondrial complex I inhibition of dihydroxy-cohibin A, non-THF annonaceous acetogenin analogue” (Bioorg Med Chem Lett, 2004)

Organism: Bos taurus
Assay: Inhibition concentration was evaluated in NADH oxidase assay using bovine heart submitochondrial particles
Format: functional

Row | SMILES | IC50
1 | CCCCCCCCCCCC[C@H](OCOC)[C@H](CC[C@@H](OCOC)[C@H](O)CCCCCCCCCCCCC1=C[C@H](C)OC1=O)OCOC | 4.1 µM
2 | CCCCCCCCCCCC[C@H](O)[C@@H](O)CC[C@@H](O)[C@H](O)CCCCCCCCCCCCC1=C[C@H](C)OC1=O [DIHYDROXY-COHIBIN A] | 0.02 µM
